Data on 1 molecule can be found in paper PMC6384562, “Isolation of Two New Compounds and Other Constituents from Leaves of Piper crocatum and Study of Their Soluble Epoxide Hydrolase Activities” (Molecules, 2019).

The experiment deals with T1, soluble epoxide hydrolase (sEH) (Homo sapiens, UniProt P34913).
T1 construct: gene EPHX2
T1 sequence (P34913 1-555): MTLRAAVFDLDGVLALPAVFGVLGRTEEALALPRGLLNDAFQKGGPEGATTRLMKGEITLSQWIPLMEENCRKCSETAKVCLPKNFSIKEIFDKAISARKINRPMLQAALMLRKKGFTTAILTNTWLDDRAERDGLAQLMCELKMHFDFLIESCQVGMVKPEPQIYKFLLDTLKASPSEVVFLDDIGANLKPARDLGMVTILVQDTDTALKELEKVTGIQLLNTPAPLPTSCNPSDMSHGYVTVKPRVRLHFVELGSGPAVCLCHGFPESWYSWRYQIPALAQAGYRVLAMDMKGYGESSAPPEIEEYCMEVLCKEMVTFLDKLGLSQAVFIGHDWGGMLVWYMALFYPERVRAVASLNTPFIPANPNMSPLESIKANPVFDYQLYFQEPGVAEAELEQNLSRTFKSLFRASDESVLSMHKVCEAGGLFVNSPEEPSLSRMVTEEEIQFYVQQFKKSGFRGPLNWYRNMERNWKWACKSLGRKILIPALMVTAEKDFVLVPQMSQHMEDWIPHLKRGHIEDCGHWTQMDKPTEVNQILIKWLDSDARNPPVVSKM
In words: fluorescence assay with recombinant human sEH and PHOME substrate. Type of experiment: biochemical.

Turning to `C=CCc1cc(OC)c(O[C@@H]2O[C@H](CO)[C@@H](O)[C@H](O)[C@H]2O)c(OC)c1` [compound 5, erigeside II], the IC50 stood at 58.5 ± 0.5 µM.
